# Laboratory results taken from ChEMBL document CHEMBL4316596, “Antimicrobial Peptides with High Proteolytic Resistance for Combating Gram-Negative Bacteria” (J Med Chem, 2019).
# Tests used:
# [1] = Stability of the compound assessed as pepsin (unknown origin)-mediated compound hydrolysis after 1 hrs by SDS-PAGE analysis; type: ADME; settings: human
# [2] = Cytotoxicity against mouse RAW264.7 cells assessed as survival rate at 16 uM after 18 to 24 hrs by MTT assay relative to control; type: cell-based; settings: read-out: Activity
Compound,Stability [1],viability at 16 µM [2] [%]
CC[C@H](C)[C@H](NC(=O)CN)C(=O)NCC(=O)N[C@@H](C)C(=O)N[C@H](C(=O)N[C@@H](CC(C)C)C(=O)N[C@@H](CCCCN)C(=O)N[C@H](C(=O)N[C@@H](CC(C)C)C(=O)N[C@H](C(=O)N[C@H](C(=O)NCC(=O)N[C@@H](CC(C)C)C(=O)N1CCC[C@H]1C(=O)N[C@@H](C)C(=O)N[C@@H](CC(C)C)C(=O)N[C@H](C(=O)N[C@@H](CO)C(=O)N[C@@H](Cc1c[nH]c2ccccc12)C(=O)N[C@H](C(=O)N[C@@H](CCCCN)C(=O)N[C@@H](CCCNC(=N)N)C(=O)N[C@@H](CCCCN)C(=O)N[C@@H](CCCNC(=N)N)C(=O)N[C@@H](CCC(N)=O)C(=O)N[C@@H](CCC(N)=O)C(N)=O)[C@@H](C)CC)[C@@H](C)CC)[C@@H](C)O)[C@@H](C)O)C(C)C)C(C)C [MELITTIN],Unstable,–
H-IRPIIRPIIRPIIRPIIRPIIRPIIRPI-NH2,–,> 80
